{"source": "patent US8927560B2", "about": "“4-Aza-2, 3-didehydropodophyllotoxin compounds and process for the preparation thereof” (Council of Scientific & Industrial Research, priority 2010, dated 2015)", "key": {"A-549": {"test_system": "A-549", "assay": "SRB in vitro cytotoxicity assay, A-549 lung cancer cells", "type": "cell-based", "conditions": "Homo sapiens, A549, 48 h drug exposure, read-out: In vitro anticancer activity GI50, Lung A-549", "excerpt": "(§1) Compounds 4a-4z and 4aa-4ae have been evaluated for their in vitro cytotoxicity in selected human cancer cell lines i.e., colon (Colo205), lung (Hop-62, A549), cervix (SiHa), prostate (PC3), oral (KB, DWD, Gurav), Ovarian (A-2780) and breast (MCF7, Zr-75-1) origin by employing the sulforhodamine B (SRB) assay method (Skehn, P.; Storeng, R.; Scudiero, A.; Monks, J.; MeMohan, D.; Vistica, D.; Jonathan, T. W.; Bokesch, H.; Kenney, S.; Boyd M. R. J. Natl. Cancer Inst. 1990, 82, 1107).\n(§2) The synthesized compounds have been evaluated for their in vitro cytotoxicity in human cancer cell lines. A protocol of 48 h continuous drug exposure has been used and a sulforhodamine B (SRB) protein assay has been used to estimate cell viability or growth. The cell lines were grown in DMEM medium containing 10% fetal bovine serum and 2 mM L-glutamine and were inoculated into 96 well microtiter plates in […] at plating densities depending on the doubling time of individual cell lines. The microliter plates were incubated at 37_C, 5% CO2, 95% air, and 100% relative humidity for 24 h prior to addition of experimental drugs. Aliquots of […] of the drug dilutions were added to the appropriate microliter wells already containing […] of cells, suiting in the required final drug concentrations. For each compound four concentrations (0.1, 1, 10 and 100 uM) were evaluated and each was done in triplicate wells. Plates were incubated further for 48 h and assay was terminated by the addition of […] of cold trichloro acetic acid (TCA) (final concentration, 10% TCA) and incubated for 60 min at 4_C. The plates were washed five times with tap water and airdried. Sulforhodamine B (SRB) solution ([…]) at 0.4% (w/v) in 1% acetic acid was added to each of the cells, and plates were incubated for 20 min at room temperature. The residual dye was removed by washing five times with 1% acetic acid. The plates were airdried. Bound stain was subsequently eluted with 10 mM trizma base, and the absorbance was read on an ELISA plate reader at a wavelength of 540 nm with 690 nm reference wavelengths. Percent growth was calculated on a plate by plate basis for test wells relative to control wells. The above determinations were repeated three times. Percentage growth was expressed as the (ratio of average absorbance of the test well to the average absorbance of the control wells)*100. Growth inhibition of 50% (GI50) was calculated from [(Ti−Tz)/(C−Tz)]*100 ¼ 50, which is the drug concentration resulting in a 50% reduction in the net protein increase (as measured by SRB staining) in control cells during the drug incubation. Where, Tz ¼ Optical density at time zero, OD of control ¼ C, and OD of test growth in the presence of drug ¼ Ti."}, "DWD": {"test_system": "DWD", "assay": "SRB in vitro cytotoxicity assay, DWD oral cancer cells", "type": "cell-based", "conditions": "Homo sapiens, 48 h drug exposure, read-out: In vitro anticancer activity GI50, Oral DWD", "excerpt": "as §1, §2"}, "Gurav": {"test_system": "Gurav", "assay": "SRB in vitro cytotoxicity assay, Gurav oral cancer cells", "type": "cell-based", "conditions": "Homo sapiens, 48 h drug exposure, read-out: In vitro anticancer activity GI50, Oral Gurav", "excerpt": "as §1, §2"}, "Hop62": {"test_system": "Hop62", "assay": "SRB in vitro cytotoxicity assay, Hop62 lung cancer cells", "type": "cell-based", "conditions": "Homo sapiens, HOP-62, 48 h drug exposure, read-out: In vitro anticancer activity GI50, Lung Hop62", "excerpt": "as §1, §2"}, "KB": {"test_system": "KB", "assay": "SRB in vitro cytotoxicity assay, KB oral cancer cells", "type": "cell-based", "conditions": "Homo sapiens, 48 h drug exposure, read-out: In vitro anticancer activity GI50, Oral KB", "excerpt": "as §1, §2"}, "A-2780": {"test_system": "A-2780", "assay": "SRB in vitro cytotoxicity assay, A-2780 ovarian cancer cells", "type": "cell-based", "conditions": "Homo sapiens, A2780, 48 h drug exposure, read-out: In vitro anticancer activity GI50, Ovarian A-2780", "excerpt": "as §1, §2"}, "Zr-75-1": {"test_system": "Zr-75-1", "assay": "SRB in vitro cytotoxicity assay, Zr-75-1 breast cancer cells", "type": "cell-based", "conditions": "Homo sapiens, 48 h drug exposure, read-out: In vitro anticancer activity GI50, Breast Zr-75-1", "excerpt": "as §1, §2"}, "MCF7": {"test_system": "MCF7", "assay": "SRB in vitro cytotoxicity assay, MCF7 breast cancer cells", "type": "cell-based", "conditions": "Homo sapiens, 48 h drug exposure, read-out: In vitro anticancer activity GI50, Breast MCF7", "excerpt": "as §1, §2"}, "PC3": {"test_system": "PC3", "assay": "SRB in vitro cytotoxicity assay, PC3 prostate cancer cells", "type": "cell-based", "conditions": "Homo sapiens, PC-3, 48 h drug exposure, read-out: In vitro anticancer activity GI50, Prostate PC3", "excerpt": "as §1, §2"}, "SiHa": {"test_system": "SiHa", "assay": "SRB in vitro cytotoxicity assay, SiHa cervix cancer cells", "type": "cell-based", "conditions": "Homo sapiens, 48 h drug exposure, read-out: In vitro anticancer activity GI50, Cervix SiHa", "excerpt": "as §1, §2"}, "Colo 205": {"test_system": "Colo 205", "assay": "SRB in vitro cytotoxicity assay, Colo 205 colon cancer cells", "type": "cell-based", "conditions": "Homo sapiens, 48 h drug exposure, read-out: In vitro anticancer activity GI50, Colon Colo 205", "excerpt": "as §1, §2"}}, "data": [{"smiles": "COc1cccc2c1C(=O)c1c(O)c3c(c(O)c1C2=O)C[C@@](O)(C(=O)CO)C[C@@H]3O[C@H]1C[C@H](N)[C@H](O)[C@H](C)O1", "note": "[ADR, adriamycin, reference compound]", "values": [{"measurement": "GI50", "setting": "A-549", "result": "< 100", "unit": "nM"}, {"measurement": "GI50", "setting": "DWD", "result": "< 100", "unit": "nM"}, {"measurement": "GI50", "setting": "Gurav", "result": "< 100", "unit": "nM"}, {"measurement": "GI50", "setting": "Hop62", "result": 150, "unit": "nM"}, {"measurement": "GI50", "setting": "KB", "result": 130, "unit": "nM"}, {"measurement": "GI50", "setting": "A-2780", "result": "< 100", "unit": "nM"}, {"measurement": "GI50", "setting": "Zr-75-1", "result": 110, "unit": "nM"}, {"measurement": "GI50", "setting": "MCF7", "result": 130, "unit": "nM"}, {"measurement": "GI50", "setting": "PC3", "result": 160, "unit": "nM"}, {"measurement": "GI50", "setting": "SiHa", "result": 160, "unit": "nM"}, {"measurement": "GI50", "setting": "Colo 205", "result": "< 100", "unit": "nM"}]}, {"smiles": "COc1cc(C2C3=C(COC3=O)Nc3ccc4nc(C)sc4c32)ccc1O", "note": "(stereo not drawn) [Compound 4v, 10-(4-hydroxy-3-methoxyphenyl)-2-methyl-6,7,9,10-tetrahydrofuro[3,4-b][1,3]thiazolo[5,4-f]quinolin-9-one]", "values": [{"measurement": "GI50", "setting": "A-549", "result": "< 100", "unit": "nM"}, {"measurement": "GI50", "setting": "DWD", "result": "< 100", "unit": "nM"}, {"measurement": "GI50", "setting": "Gurav", "result": 180, "unit": "nM"}, {"measurement": "GI50", "setting": "Hop62", "result": 170, "unit": "nM"}, {"measurement": "GI50", "setting": "KB", "result": 2000, "unit": "nM"}, {"measurement": "GI50", "setting": "A-2780", "result": 120, "unit": "nM"}, {"measurement": "GI50", "setting": "Zr-75-1", "result": 170, "unit": "nM"}, {"measurement": "GI50", "setting": "MCF7", "result": 160, "unit": "nM"}, {"measurement": "GI50", "setting": "PC3", "result": 160, "unit": "nM"}, {"measurement": "melting point", "result": "293 to 295", "unit": "°C"}, {"measurement": "GI50", "setting": "SiHa", "result": 180, "unit": "nM"}]}, {"smiles": "COc1cc(C2C3=C(COC3=O)Nc3ccc4cn[nH]c4c32)cc(OC)c1OC", "note": "(stereo not drawn) [Compound 4n, 10-(3,4,5-trimethoxyphenyl)-6,7,9,10-tetrahydro-1H-furo[3,4-b]pyrazolo[3,4-f]quinolin-9-one]", "values": [{"measurement": "GI50", "setting": "A-549", "result": "< 100", "unit": "nM"}, {"measurement": "GI50", "setting": "DWD", "result": "< 100", "unit": "nM"}, {"measurement": "GI50", "setting": "Gurav", "result": 160, "unit": "nM"}, {"measurement": "GI50", "setting": "Hop62", "result": 2100, "unit": "nM"}, {"measurement": "GI50", "setting": "KB", "result": 2100, "unit": "nM"}, {"measurement": "GI50", "setting": "A-2780", "result": 140, "unit": "nM"}, {"measurement": "GI50", "setting": "Zr-75-1", "result": 160, "unit": "nM"}, {"measurement": "GI50", "setting": "MCF7", "result": 190, "unit": "nM"}, {"measurement": "GI50", "setting": "PC3", "result": 190, "unit": "nM"}, {"measurement": "GI50", "setting": "SiHa", "result": 190, "unit": "nM"}, {"measurement": "GI50", "setting": "Colo 205", "result": 2700, "unit": "nM"}]}, {"smiles": "COc1ccc(C2C3=C(COC3=O)Nc3ccc4ncsc4c32)cc1O", "note": "(stereo not drawn) [Compound 4u, 10-(3-hydroxy-4-methoxyphenyl)-6,7,9,10-tetrahydrofuro[3,4-b][1,3]thiazolo[5,4-f]quinolin-9-one]", "values": [{"measurement": "GI50", "setting": "A-549", "result": "< 100", "unit": "nM"}, {"measurement": "GI50", "setting": "DWD", "result": 2000, "unit": "nM"}, {"measurement": "GI50", "setting": "Gurav", "result": 190, "unit": "nM"}, {"measurement": "GI50", "setting": "Hop62", "result": 2300, "unit": "nM"}, {"measurement": "GI50", "setting": "KB", "result": 180, "unit": "nM"}, {"measurement": "GI50", "setting": "A-2780", "result": 180, "unit": "nM"}, {"measurement": "GI50", "setting": "Zr-75-1", "result": 160, "unit": "nM"}, {"measurement": "GI50", "setting": "MCF7", "result": 180, "unit": "nM"}, {"measurement": "GI50", "setting": "PC3", "result": 2100, "unit": "nM"}, {"measurement": "melting point", "result": "327 to 329", "unit": "°C"}, {"measurement": "GI50", "setting": "SiHa", "result": 2000, "unit": "nM"}, {"measurement": "GI50", "setting": "Colo 205", "result": 150, "unit": "nM"}]}]}
